Experimental data: PMC7351850 (European Journal of Clinical Pharmacology, 2020)
Each block holds one compound with its values, some of them ahead of it.

Key:
[1] = target: T1, MATE1 (Homo sapiens, UniProt Q96FL8); assay: Inhibition of [14C]metformin uptake into MATE1-expressing HEK293 cells; assay type: cell-based
T1 construct: containing full-length human transporter cDNA; host or cells: HEK293
T1 sequence (Q96FL8 1-570): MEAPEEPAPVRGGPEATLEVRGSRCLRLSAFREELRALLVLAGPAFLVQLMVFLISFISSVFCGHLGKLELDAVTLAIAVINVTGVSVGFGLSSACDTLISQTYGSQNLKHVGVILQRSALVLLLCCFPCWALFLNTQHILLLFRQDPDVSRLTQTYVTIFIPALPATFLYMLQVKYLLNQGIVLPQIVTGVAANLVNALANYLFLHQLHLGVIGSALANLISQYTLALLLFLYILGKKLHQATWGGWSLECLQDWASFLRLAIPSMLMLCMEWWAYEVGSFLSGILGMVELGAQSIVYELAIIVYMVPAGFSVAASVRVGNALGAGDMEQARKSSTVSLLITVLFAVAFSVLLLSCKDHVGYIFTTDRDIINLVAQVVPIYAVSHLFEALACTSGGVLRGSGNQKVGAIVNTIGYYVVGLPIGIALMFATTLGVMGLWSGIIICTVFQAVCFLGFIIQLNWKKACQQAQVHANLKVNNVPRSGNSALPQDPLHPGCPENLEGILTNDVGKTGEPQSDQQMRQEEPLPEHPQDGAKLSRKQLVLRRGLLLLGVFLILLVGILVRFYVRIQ
Excerpt: (§1) Human embryonic kidney (HEK293) cells expressing OCT1, OCT2, MATE1 and MATE2-K were established at the ADME & Tox. Research Institute (Sekisui Medical Co., Ltd, Ibaraki, Japan) by transfection of a pcDNA vector (Invitrogen, Carlsbad, CA, USA) containing full-length human transporter cDNA. Control HEK293 cells were established by transfection of the empty vector. The expression level of transporter mRNA in transfected cells was verified periodically by real-time polymerase chain reaction. […] The cells were maintained at 37 °C with 5% CO2 in DMEM containing 10% FBS with antibiotic-antimycotics and L-glutamine.
(§2) Assays were performed in triplicate. […]
(§3) After incubation, the test solution was removed, and the cells were washed once with ice-cold 0.2% bovine serum albumin in phosphate-buffered saline (PBS) and twice with 1 mL of ice-cold PBS. […] After the cell lysate was mixed by pipetting, 0.3 mL (OCT1, OCT2, and MATE1) or 0.5 mL (MATE2-K) of the lysate was collected into a glass vial and mixed with 10 mL of the scintillator Hionic-fluor (PerkinElmer, Inc., Waltham, MA, USA) to measure the radioactivity using a liquid scintillation counter (2500TR [PerkinElmer, Inc.]).
(§4) Protein content was measured using the BCA Protein Assay Kit (Thermo Fisher Scientific, Inc., Waltham, MA, USA, or Pierce, Rockford, IL, USA) in accordance with the manufacture’s recommendations. […]

[2] = target: T2, MATE2-K (Homo sapiens, UniProt Q86VL8); assay: Inhibition of [14C]metformin uptake into MATE2-K-expressing HEK293 cells; assay type: cell-based
T2 construct: containing full-length human transporter cDNA; expressed in transfected cells; host or cells: HEK293 (transient transfection)
Excerpt: as §1, §2, §3, §4

[3] = target: T3, OCT2 (Homo sapiens, UniProt O15244); assay: Inhibition of [14C]metformin uptake into OCT2-expressing HEK293 cells; assay type: cell-based
T3 construct: containing full-length human transporter cDNA; host or cells: HEK293
T3 sequence (O15244 1-555): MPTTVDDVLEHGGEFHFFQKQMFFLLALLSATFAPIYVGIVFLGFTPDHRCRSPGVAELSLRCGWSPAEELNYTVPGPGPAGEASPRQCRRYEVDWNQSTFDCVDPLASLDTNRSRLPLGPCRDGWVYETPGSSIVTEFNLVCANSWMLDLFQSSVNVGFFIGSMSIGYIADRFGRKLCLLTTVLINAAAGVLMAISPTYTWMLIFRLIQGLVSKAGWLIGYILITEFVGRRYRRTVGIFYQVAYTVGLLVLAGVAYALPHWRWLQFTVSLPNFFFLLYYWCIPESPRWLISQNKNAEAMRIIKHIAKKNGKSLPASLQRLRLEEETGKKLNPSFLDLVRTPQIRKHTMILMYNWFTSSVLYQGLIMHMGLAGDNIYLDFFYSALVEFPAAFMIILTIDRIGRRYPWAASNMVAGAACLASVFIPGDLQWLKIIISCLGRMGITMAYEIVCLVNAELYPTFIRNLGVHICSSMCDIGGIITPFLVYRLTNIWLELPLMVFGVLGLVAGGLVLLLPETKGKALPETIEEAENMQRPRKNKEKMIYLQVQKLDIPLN
Excerpt: as §1, §2, §3, §4

[4] = design: method as in earlier work; details: cited from earlier work
[5] = target: T4, OCT1 (Homo sapiens, UniProt O15245); assay: Inhibition of [14C]metformin uptake into OCT1-expressing HEK293 cells; assay type: cell-based
T4 construct: containing full-length human transporter cDNA; host or cells: HEK293
T4 sequence (O15245 1-554): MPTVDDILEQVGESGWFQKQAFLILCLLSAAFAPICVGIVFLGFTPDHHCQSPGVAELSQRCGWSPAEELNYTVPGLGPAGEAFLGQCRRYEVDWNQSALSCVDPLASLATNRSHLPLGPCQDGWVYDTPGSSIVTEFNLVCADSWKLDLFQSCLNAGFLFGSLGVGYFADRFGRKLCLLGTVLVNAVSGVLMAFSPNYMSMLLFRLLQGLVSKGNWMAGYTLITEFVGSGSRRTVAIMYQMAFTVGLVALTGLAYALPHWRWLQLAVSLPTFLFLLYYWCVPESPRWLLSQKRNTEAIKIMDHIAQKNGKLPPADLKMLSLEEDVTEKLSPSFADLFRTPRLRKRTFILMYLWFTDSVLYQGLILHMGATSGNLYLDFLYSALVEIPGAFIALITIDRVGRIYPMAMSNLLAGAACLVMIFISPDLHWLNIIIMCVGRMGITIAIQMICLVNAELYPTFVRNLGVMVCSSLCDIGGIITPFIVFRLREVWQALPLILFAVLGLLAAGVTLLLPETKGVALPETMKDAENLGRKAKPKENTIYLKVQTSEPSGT
Excerpt: as §1, §2, §3, §4

[6] = cited from earlier work
[7] = Clinical drug-drug interaction study: safety (treatment-emergent adverse events); assay type: in vivo, healthy male subjects
Protocol: Safety assessments were undertaken from screening through to the final study assessment. Safety was assessed by the monitoring of adverse events, vital signs (supine blood pressure, supine pulse and axillary temperature), clinical laboratory tests (haematology, biochemistry and urinalysis) and 12-lead electrocardiograms (ECGs).
TEAEs were graded using the National Cancer Institute’s Common Terminology Criteria for Adverse Events (NCI CTCAE) guidelines (version 4.0).

[8] = Earlier clinical pharmacokinetic and mass balance studies of peficitinib; assay type: in vivo, healthy subjects; details: single oral dose of 150 mg, fasted; calculated from 524.5 ng/mL assuming 72.83% protein bound
[9] = metformin 750 mg single dose alone, fed, n=24
Protocol: (§5) Subjects were admitted to hospital on Day 1 and were discharged on Day 12. […] On Day 3 and Days 5–11, subjects received peficitinib 150 mg (150 mg × 1 tablet), once daily. Subjects returned for an end-of-study examination on Day 15 ± 2.
(§6) The planned sample size was 24 subjects, based on the precedent set by other PK studies of a similar nature [21, 22]. The safety analysis set (SAF) consisted of all subjects who received at least one dose of study drug. The PK analysis set (PKAS) consisted of subjects who received the study drug and provided at least one estimable PK parameter. Plasma PK parameters were calculated by non-compartmental analysis using Phoenix(R) WinNonlin(R) software, version 6.2 (Certara USA, Inc., Princeton, NJ, USA). Baseline demographic and other characteristics, vital signs, clinical laboratory findings, 12-lead ECG results and TEAEs were summarised for the SAF using descriptive statistics.
(§7) Statistical analyses were performed using SAS(R) software, version 9.4 (SAS Institute Inc., Cary, NC, USA). […] The least-square (LS) geometric mean ratio (GMR) and its 90% confidence interval (CI) were calculated using the exponential-transformed LS geometric mean difference and CI. Missing data were not imputed or used for analyses.

[10] = clinical; details: male, human, plasma, po, 750 mg, metformin 750 mg single dose alone, fed, n=24; for AUC(0-inf): Plasma AUCinf of metformin; for Cmax: Plasma Cmax of metformin
Protocol: as §5, §6, §7

[11] = single oral dose of [14C]peficitinib, six healthy male subjects

T2 sequence (Q86VL8 1-566 isoform Q86VL8-3): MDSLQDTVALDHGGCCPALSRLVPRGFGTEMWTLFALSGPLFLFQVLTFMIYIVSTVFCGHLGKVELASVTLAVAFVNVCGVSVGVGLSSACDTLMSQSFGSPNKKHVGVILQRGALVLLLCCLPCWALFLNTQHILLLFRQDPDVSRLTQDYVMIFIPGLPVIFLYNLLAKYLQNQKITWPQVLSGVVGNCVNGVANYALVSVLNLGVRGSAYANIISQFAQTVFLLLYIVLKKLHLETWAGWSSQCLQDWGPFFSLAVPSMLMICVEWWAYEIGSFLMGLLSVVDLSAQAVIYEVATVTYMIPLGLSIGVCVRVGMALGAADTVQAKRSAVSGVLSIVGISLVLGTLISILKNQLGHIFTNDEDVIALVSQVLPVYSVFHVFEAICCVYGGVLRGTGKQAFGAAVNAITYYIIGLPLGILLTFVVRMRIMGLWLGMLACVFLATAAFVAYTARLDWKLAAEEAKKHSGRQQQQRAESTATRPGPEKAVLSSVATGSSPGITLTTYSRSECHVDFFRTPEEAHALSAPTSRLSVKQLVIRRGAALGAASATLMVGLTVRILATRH

[14C]metformin uptake into MATE1-expressing cells, % of uptake in the absence of inhibitors ([1]; typical inhibitor, cimetidine 10 μmol/L): 11.9–14.7%
[14C]metformin uptake into MATE2-K-expressing cells, % of uptake in the absence of inhibitors ([2]; typical inhibitor, cimetidine 100 μmol/L): 8.2–15.1%
Structure (SMILES): CN/C(=N/CCSCc1nc[nH]c1C)NC#N [cimetidine, reference compound]

IC50 [1]: 10 µM
IC50 [3]: 71.4 µM
IC50 [5]: 0.247 µM
IC50 [2]: 20.8 µM
Cmax of unbound peficitinib [8]: 440 nM
Structure (SMILES): NC(=O)c1cnc2[nH]ccc2c1N[C@@H]1[C@@H]2CC3C[C@H]1C[C@@](O)(C3)C2 [Peficitinib]
Protein bound [4]: 72.83%
Urinary excretion, share of an oral dose ([6]; single and multiple doses, healthy subjects, two Phase I trials): 9–15%
Cmax of peficitinib ([6]; single oral dose of 150 mg, fasted conditions): 524.5 ng/mL
Share of the peficitinib dose absorbed ([6]; single oral dose of [14C]peficitinib, six healthy male subjects, assuming stability in the gastrointestinal tract): approximately 64%
Mean faecal excretion as unchanged peficitinib, share of administered dose [6, 11]: 29.8%
Mean recovery in faeces [6, 11]: 56.6%
Mean recovery in urine [6, 11]: 36.8%
Tolerability ([7]; peficitinib 150 mg, metformin 750 mg, no serious TEAEs or TEAEs leading to treatment withdrawal): generally well tolerated
Subjects with TEAEs ([7]; peficitinib alone phase, 150 mg once daily, 3/24 subjects, four mild (Grade 1) TEAEs, all considered drug related): 12.5%
Increased aspartate aminotransferase, subjects ([7]; peficitinib alone phase, 1/24): 4.2%
Soft faeces, subjects ([7]; peficitinib alone phase, 1/24): 4.2%
Increased alanine aminotransferase, subjects ([7]; peficitinib alone phase, 2/24): 8.3%

CL/F of metformin, mean (SD) [9]: 83.6 (12.5) L/h
CL/F of metformin, median [9]: 82.9 L/h
CL/F of metformin, min-max [9]: 60.2 to 110 L/h
Plasma AUClast of metformin, mean (SD) [9]: 9050 (1410) ng∙h/mL
Plasma AUClast of metformin, median [9]: 8990 ng·h/mL
Urine Aelast% of metformin, mean (SD) [9]: 38.6 (3.77) %
Urine Aelast% of metformin, median [9]: 37.7%
Urine Aelast% of metformin, min-max [9]: 33.0–49.8%
tmax of metformin, median [9]: 3.00 h
AUC(0-inf) ([10]; median): 9050 ng·h/mL
AUC(0-inf) ([10]; min-max): 6820 to 12500 ng·h/mL
Cmax ([10]; mean (SD)): 1380 ng/mL
Cmax ([10]; median): 1380 ng/mL
Cmax ([10]; min-max): 973 to 2030 ng/mL
Structure (SMILES): CN(C)C(=N)N=C(N)N [Metformin]
